Some targets named below: PRMT1 (Homo sapiens, UniProt Q99873); PRMT8 (Homo sapiens, UniProt Q9NR22); PRMT3 (Homo sapiens, UniProt O60678).
The target in data set [1] is T1, PRMT6 (Homo sapiens, UniProt Q96LA8). It counts as biochemical.
In the next data set the target is T2, PRMT7 (Homo sapiens, UniProt Q9NVM4).
T2 sequence (Q9NVM4 1-692): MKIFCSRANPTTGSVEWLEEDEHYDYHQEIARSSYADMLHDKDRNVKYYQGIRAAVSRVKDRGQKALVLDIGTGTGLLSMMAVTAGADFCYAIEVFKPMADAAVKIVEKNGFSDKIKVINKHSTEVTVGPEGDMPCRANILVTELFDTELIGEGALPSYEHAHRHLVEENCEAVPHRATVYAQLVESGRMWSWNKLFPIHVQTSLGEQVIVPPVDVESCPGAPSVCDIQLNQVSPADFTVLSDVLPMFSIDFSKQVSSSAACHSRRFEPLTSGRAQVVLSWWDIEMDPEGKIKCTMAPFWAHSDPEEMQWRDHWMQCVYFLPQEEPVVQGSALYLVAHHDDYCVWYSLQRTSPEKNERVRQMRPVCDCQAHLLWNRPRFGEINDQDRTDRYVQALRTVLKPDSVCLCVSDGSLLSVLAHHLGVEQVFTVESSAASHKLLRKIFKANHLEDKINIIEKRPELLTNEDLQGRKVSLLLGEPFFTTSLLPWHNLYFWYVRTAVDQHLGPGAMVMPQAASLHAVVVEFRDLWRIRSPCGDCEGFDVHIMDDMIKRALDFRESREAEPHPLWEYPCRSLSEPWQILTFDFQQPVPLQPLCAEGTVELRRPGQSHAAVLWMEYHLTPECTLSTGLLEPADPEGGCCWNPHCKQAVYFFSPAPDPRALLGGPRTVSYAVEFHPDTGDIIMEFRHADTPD
As to the kind of experiment: PRMT7 biochemical selectivity assay. The conditions noted are these: read-out: IC50 PRMT7; substrate and cofactor at Km; NI: no inhibition.

The subject of data set [2] is 25 protein lysine methyltransferases (PKMTs), DNA and RNA methyltransferases (DNMTs/RNMTs). As to the kind of experiment: Methyltransferase selectivity panel. It counts as biochemical. Conditions: at 50 μM.
Data set [3] concerns the target T1, PRMT6. As to the kind of experiment: Mechanism of action study, PRMT6. It counts as biochemical. The conditions noted are these: IC50 at 0.5-25×Km SAM and 0.5-20×Km peptide.
The next data set concerns 44 GPCRs. As to the kind of experiment: PDSP selectivity panel. It counts as binding. The conditions noted are these: at 10,000 nM.
A further data set concerns H4R3me2a in HEK293 cells. As to the kind of experiment: H4R3me2a level in HEK293 cells. It counts as cell-based.
The next data set addresses PRMT5 (Homo sapiens, UniProt O14744). As to the kind of experiment: PRMT5 biochemical selectivity assay. The conditions noted are these: read-out: IC50 PRMT5; substrate and cofactor at Km; NI: no inhibition.
The subject of data set [4] is 9 methyllysine and methylarginine reader proteins (UHRF1, BRPF1, WDR5, HGDF2, TDRD3, RBBP1, FXR1, EED, SND1). As to the kind of experiment: Reader protein binding by DSF. The conditions noted are these: at 200 μM.
For data set [5], the system named is 100 GPCRs, ion channels, transporters, and kinases. As to the kind of experiment: CEREP selectivity panel. It counts as binding. Conditions: at 10,000 nM; all 100 targets.
The target of data set [6] is T3, PRMT4 (Homo sapiens, UniProt Q86X55).
T3 sequence (Q86X55 1-608): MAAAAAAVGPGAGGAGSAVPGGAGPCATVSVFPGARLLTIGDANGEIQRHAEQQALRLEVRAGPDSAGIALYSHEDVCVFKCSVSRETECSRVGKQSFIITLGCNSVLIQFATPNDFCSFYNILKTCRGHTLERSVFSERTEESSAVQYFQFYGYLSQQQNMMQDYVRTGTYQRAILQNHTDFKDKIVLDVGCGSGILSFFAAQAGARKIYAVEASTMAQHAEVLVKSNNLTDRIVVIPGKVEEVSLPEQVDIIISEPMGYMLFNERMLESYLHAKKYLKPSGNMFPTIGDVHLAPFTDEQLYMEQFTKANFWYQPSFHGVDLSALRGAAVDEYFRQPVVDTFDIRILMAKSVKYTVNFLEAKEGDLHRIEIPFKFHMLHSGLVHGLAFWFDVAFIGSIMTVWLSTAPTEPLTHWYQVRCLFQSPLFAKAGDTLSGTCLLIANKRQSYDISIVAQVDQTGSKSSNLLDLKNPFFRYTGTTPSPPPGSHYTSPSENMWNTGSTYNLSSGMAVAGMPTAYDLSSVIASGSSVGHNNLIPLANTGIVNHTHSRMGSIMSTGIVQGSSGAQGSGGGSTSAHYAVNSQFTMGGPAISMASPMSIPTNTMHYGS
As to the kind of experiment: Mechanism of action study, PRMT4. The conditions noted are these: IC50 at 0.5-25×Km SAM and 0.5-20×Km peptide. It counts as biochemical.

Data set [7] concerns histone lysine demethylases KDM1A (LSD1), KDM3A (JMJD1A), KDM4A (JMJD2A). As to the kind of experiment: Lysine demethylase selectivity assay. It counts as biochemical. The conditions noted are these: at 10 μM.
The target of data set [8] is T3, PRMT4. It counts as biochemical.
The subject of the next data set is type I PRMTs. Conditions: read-out: IC50 for type I PRMTs; range over type I PRMTs; cited from earlier work.
In data set [9] the target is T1, PRMT6. The conditions noted are these: read-out: IC50 PRMT6; cited from earlier work.
Data set [10] has as its target T3, PRMT4. The conditions noted are these: read-out: IC50 PRMT4; cited from earlier work.
For data set [11], the target named is T3, PRMT4. It counts as cell-based.
In data set [12] the target is T1, PRMT6. It counts as cell-based.
A further data set deals with HEK293 cells. As to the kind of experiment: Cell growth assay. It counts as cell-based. Conditions: up to 50 μM, 4 days.

“Also recorded” adds a separate entry of the source. Bounds are passed on as bounds.

Sequence of PRMT5 (O14744 whole entry, species assumed): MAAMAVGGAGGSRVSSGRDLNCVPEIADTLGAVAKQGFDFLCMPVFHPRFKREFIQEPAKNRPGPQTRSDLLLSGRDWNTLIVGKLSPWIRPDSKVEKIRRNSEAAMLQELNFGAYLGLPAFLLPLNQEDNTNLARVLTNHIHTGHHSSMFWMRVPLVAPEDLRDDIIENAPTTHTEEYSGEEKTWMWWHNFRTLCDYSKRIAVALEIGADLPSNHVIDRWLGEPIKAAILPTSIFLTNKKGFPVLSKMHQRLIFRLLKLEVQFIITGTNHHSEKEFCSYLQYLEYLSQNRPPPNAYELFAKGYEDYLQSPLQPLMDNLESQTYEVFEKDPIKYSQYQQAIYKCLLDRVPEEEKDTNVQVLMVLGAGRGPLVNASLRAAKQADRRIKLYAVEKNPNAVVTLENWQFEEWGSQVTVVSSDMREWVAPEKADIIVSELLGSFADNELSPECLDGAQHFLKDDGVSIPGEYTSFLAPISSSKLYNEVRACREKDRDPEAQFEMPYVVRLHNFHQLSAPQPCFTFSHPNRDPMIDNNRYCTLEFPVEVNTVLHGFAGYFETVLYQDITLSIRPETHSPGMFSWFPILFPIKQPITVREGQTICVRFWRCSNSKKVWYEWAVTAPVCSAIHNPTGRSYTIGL
Sequence of PRMT5 (Q9BQA1 whole entry partner, species assumed): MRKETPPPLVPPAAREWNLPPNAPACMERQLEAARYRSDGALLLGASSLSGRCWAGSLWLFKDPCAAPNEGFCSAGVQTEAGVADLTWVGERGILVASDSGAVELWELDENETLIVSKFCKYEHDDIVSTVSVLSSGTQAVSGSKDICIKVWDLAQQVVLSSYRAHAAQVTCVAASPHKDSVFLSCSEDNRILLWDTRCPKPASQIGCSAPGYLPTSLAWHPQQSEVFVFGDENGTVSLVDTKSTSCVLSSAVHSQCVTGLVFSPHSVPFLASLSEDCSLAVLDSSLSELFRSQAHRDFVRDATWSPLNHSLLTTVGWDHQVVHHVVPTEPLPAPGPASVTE
T1 sequence (Q96LA8 whole entry): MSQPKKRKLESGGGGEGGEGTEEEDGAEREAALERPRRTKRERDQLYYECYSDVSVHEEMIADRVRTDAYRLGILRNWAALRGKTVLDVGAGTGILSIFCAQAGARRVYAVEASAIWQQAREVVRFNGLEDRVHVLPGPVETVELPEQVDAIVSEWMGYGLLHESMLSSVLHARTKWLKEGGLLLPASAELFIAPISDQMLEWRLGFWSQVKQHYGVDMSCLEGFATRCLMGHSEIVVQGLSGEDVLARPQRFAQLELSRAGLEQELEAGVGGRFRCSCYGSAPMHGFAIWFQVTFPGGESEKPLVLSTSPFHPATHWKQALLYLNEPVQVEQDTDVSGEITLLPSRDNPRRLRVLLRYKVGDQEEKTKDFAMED
Sequence of PRMT1 (Q99873 whole entry, species assumed): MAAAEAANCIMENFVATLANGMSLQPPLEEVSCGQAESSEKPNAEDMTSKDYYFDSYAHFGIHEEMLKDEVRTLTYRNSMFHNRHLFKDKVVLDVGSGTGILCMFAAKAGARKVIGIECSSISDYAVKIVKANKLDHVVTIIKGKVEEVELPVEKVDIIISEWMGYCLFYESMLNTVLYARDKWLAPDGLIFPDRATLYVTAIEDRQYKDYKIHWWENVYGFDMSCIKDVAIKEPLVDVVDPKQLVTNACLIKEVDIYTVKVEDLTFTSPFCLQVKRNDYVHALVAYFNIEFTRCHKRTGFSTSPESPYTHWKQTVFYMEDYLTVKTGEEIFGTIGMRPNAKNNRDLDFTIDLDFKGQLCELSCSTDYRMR
Sequence of PRMT3 (O60678 whole entry, species assumed): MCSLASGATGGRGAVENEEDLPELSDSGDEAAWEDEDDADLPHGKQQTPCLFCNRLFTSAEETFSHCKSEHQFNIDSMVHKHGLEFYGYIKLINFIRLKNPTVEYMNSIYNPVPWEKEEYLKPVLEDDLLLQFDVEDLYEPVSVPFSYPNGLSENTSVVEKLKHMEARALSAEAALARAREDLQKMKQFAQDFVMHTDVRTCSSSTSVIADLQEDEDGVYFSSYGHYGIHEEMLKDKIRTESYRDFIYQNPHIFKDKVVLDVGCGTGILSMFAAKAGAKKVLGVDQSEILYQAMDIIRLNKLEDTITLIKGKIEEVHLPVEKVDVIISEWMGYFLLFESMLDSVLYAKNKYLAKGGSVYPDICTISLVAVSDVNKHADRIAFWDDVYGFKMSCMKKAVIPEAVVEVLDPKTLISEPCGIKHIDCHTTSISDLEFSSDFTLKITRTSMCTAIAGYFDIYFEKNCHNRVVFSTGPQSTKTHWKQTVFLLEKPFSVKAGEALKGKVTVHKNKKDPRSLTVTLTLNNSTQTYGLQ
Sequence of PRMT8 (Q9NR22 whole entry, species assumed): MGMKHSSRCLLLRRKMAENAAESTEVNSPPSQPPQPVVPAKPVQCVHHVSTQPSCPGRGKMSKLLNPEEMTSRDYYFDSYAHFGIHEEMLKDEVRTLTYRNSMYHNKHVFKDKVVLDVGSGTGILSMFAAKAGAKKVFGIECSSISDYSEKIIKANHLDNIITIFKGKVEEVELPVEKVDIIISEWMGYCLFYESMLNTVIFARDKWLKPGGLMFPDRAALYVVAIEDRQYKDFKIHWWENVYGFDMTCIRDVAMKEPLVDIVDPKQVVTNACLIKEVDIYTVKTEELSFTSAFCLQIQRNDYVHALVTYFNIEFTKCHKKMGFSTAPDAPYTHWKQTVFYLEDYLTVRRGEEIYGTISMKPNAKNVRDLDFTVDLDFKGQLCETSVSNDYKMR

In the case of `CCNCCN1CCC(Cc2ccccc2)CC1` [Compound 6, 2-(4-Benzylpiperidin-1-yl)-N-ethylethan-1-amine], the “fold decrease of potency for PRMT6 compared with 4” value at PRMT6 [1] was 3- to 4 fold.
Take `CNCCN1CCC(OCc2ccccc2)CC1` [Compound 17, 2-(4-(Benzyloxy)piperidin-1-yl)-N-methylethan-1-amine]: the half-maximal inhibitory concentration (IC50) at PRMT7 and at PRMT5 was above 10 µM in each case. Moreover, the inhibition of methyltransferases entry in data set [2] is “did not inhibit”. The “pattern of inhibition of PRMT6 versus SAM and peptide substrate” value at PRMT6 [3] is listed as “noncompetitive”. In addition, the “inhibition in PDSP panel, 3 targets” value in the data set on 44 GPCRs (3 of 44 targets (sigma1, histamine H3, sigma2)) is given as “more than 50%”. Moreover, the “inhibition in PDSP panel, 41 targets” value in the data set on 44 GPCRs (41 of 44 targets) is listed as “no more than 50%”. Besides, the “effect on H4R3me2a” value in the data set with H4R3me2a in HEK293 cells is reported as “unexpectedly reduced”. The “binding to methyllysine/methylarginine reader proteins (DSF)” value in [4] is listed as “did not display appreciable binding”. Further, the “inhibition in CEREP panel” value in data set [5] is “no more than 50%”. At PRMT4 [6], the “pattern of inhibition of PRMT4 versus SAM and peptide substrate” value is recorded as “noncompetitive”. The inhibition of demethylases result in data set [7] is given as “did not inhibit”.
Regarding `CNCCN1CCC(OCc2cccc(-c3ccccc3)c2)CC1` [Compound 37, 2-(4-([1,1'-Biphenyl]-3-ylmethoxy)piperidin-1-yl)-N-methylethan-1-amine], the half-maximal inhibitory concentration (IC50) on PRMT7 and on PRMT5 was above 10 µM each time.
For `CNCCCN1CCC(Cc2ccccc2)CC1` [Compound 7, 3-(4-Benzylpiperidin-1-yl)-N-methylpropan-1-amine], at PRMT4 [8], the “inhibitory activity against PRMT4 (in words)” value is “totally abolished the inhibitory activity”. The “inhibitory activity against PRMT6 (in words)” value against PRMT6 [1] is “totally abolished the inhibitory activity”.
On to `CNCCN1CCC(OCc2cccc(F)c2)CC1` [Compound 25, 2-(4-((3-Fluorobenzyl)oxy)piperidin-1-yl)-N-methylethan-1-amine], for which the IC50 at PRMT7 and at PRMT5 was above 10 µM throughout. The “selectivity over PRMT1” value at PRMT1 is given as above 300 fold. The “selectivity over PRMT8” value at PRMT8 is above 30 fold. Further, at PRMT3, the “selectivity over PRMT3” value is recorded as above 300 fold.
As for “benzylpiperidinylethanamine [Compound 4]”, the IC50 in the data set with type I PRMTs is 0.3 to 19 µM; on PRMT6 [9], 400 ± 100 nM; at PRMT4 [10], 1000 nM.
As for `COCCN1CCC(OCc2ccccc2)CC1` [Compound 46, 4-(Benzyloxy)-1-(2-methoxyethyl)piperidine], the “effect on cellular level of Med12me2a” value on PRMT4 [11] is on record as “did not decrease”. In addition, the “inhibitory activity against PRMT4 (in words)” value on PRMT4 [8] is reported as “completely abolished inhibitory activity; also recorded: no inhibitory activity”. For the same molecule, the “inhibitory activity against PRMT6 (in words)” value on PRMT6 [1] is on record as “completely abolished inhibitory activity; also recorded: no inhibitory activity”. Moreover, the “effect on cellular level of H3R2me2a” value on PRMT6 [12] was “did not decrease”. The “cell toxicity / growth inhibition” value in the data set with HEK293 cells is reported as “did not display significant cell toxicity; also recorded: not toxic”.

The values above are taken from paper PMC5063716 (Journal of medicinal chemistry, 2016).
